The values that follow come from ChEMBL document CHEMBL1152602, “A new therapeutic approach in Parkinson's disease: some novel quinazoline derivatives as dual selective phosphodiesterase 1 inhibitors and anti-inflammatory agents” (Bioorg Med Chem, 2009).

SMILES strings stand for the structures.

In series [1] the test system is Rattus norvegicus. As to the kind of experiment: Antiinflammatory activity in Sprague-Dawley rat assessed as inhibition of carrageenan-induced paw edema at 50 mg/kg, ip treated 60 mins before carrageenan challenge measured after 90 mins. It is filed as functional. Conditions: route intraperitoneal. Background: In the carrageenan paw model, swelling and tenderness develop within hours.

A short description of series [2]: Inhibition of PDE1.
Series [3] deals with Rattus norvegicus. As to the kind of experiment: Antiinflammatory activity in Sprague-Dawley rat assessed as inhibition of carrageenan-induced paw edema at 50 mg/kg, po treated 60 mins before carrageenan challenge measured after 90 mins. It is filed as functional.
Series [4] deals with Rattus norvegicus. Nature of the series: Antiinflammatory activity in Sprague-Dawley rat assessed as inhibition of carrageenan-induced paw edema at 50 mg/kg, ip treated 60 mins before carrageenan challenge measured after 180 mins. Conditions: route intraperitoneal. In kind it is functional.
In series [5] the test system is Rattus norvegicus. Nature of the series: Antiinflammatory activity in Sprague-Dawley rat assessed as inhibition of carrageenan-induced paw edema at 50 mg/kg, po treated 60 mins before carrageenan challenge measured after 180 mins. It is filed as functional.
Series [6] deals with Rattus norvegicus. Nature of the series: Toxicity in Sprague-Dawley rat assessed as gastrointestinal ulceration at 200 mg/kg, po once daily for 5 days. In kind it is organism-based. The arrangement: dose 200 mg/kg, route oral. The conditions noted are these: in vivo, 120 h.

On to `Cc1ccc(-c2cc(-c3ccc(Cl)cc3)c3c(ncn4c(=O)c5ccccc5nc34)n2)cc1`, for which the inhibition in vivo (as a rule, how much of the control response was suppressed) at 50 mg/kg in series [1] stood at 38%; in series [3] it was 37%; in series [4], 53%; in series [5], 49%. In addition, in series [2], the IC50 (commonly the concentration that gives 50% inhibition) is 98.2 µM.
For the molecule `Cc1ccc(-c2cc(-c3ccc(Cl)cc3)c3c(ncn4c(=O)c5cc(Br)ccc5nc34)n2)cc1`, the inhibition in vivo at 50 mg/kg is 82% in series [1], 80% in series [3], 89% in series [4] and 87% in series [5]. The midpoint of inhibition in series [2], the IC50, lay at 66.4 µM.
As for `O=c1c2cc(Br)ccc2nc2c3c(-c4ccccc4)cc(-c4ccc(Cl)cc4)nc3ncn12`, the inhibition in vivo at 50 mg/kg in series [1] was 69%; in series [3] it was 67%; in series [4] it was 80%; in series [5], 77%. The same molecule had an IC50 in series [2] of 95.1 µM. For the same molecule, the Activity result in series [6] is “Non-toxic”.
In the case of `Cc1ccc(-c2cc(Cc3ccco3)c3c(ncn4c(=O)c5ccccc5nc34)n2)cc1`, the inhibition in vivo at 50 mg/kg in series [1] was 6%; in series [3], 11%; in series [4], 20%; in series [5], 22%. The molecule further displayed an IC50 in series [2] of 56.4 µM.
In the same order, the values of `COc1ccc(-c2cc(-c3cccc([N+](=O)[O-])c3)c3c(ncn4c(=O)c5cc(Br)ccc5nc34)n2)cc1` are 13%, 12%, 30%, 25% and 101 µM.
In the same order, the values of `O=c1c2cc(Br)cc(Br)c2nc2c3c(-c4ccc(Cl)cc4)csc3ncn12` are 2%, 2%, 17%, 10% and 83.5 µM.
In the same order, the values of `COc1ccc(-c2cc(-c3cccc([N+](=O)[O-])c3)c3c(ncn4c(=O)c5ccccc5nc34)n2)cc1` are 3%, 3%, 16%, 9% and 39.9 µM.
Consider `Cc1ccc(-c2cc(-c3ccccc3)nc3ncn4c(=O)c5cc(Br)cc(Br)c5nc4c23)cc1`, for which the inhibition in vivo at 50 mg/kg in series [1] was 62%; in series [3], 59%; in series [4] it was 72%; in series [5] it was 70%. This molecule had an IC50 in series [2] of 52.4 µM. Moreover, the Activity entry in series [6] was “Non-toxic”.
For the molecule `Cc1ccc(-c2cc(-c3ccc(Cl)cc3)c3c(ncn4c(=O)c5cc(Br)cc(Br)c5nc34)n2)cc1`, the inhibition in vivo at 50 mg/kg in series [1] is 78%; in series [3], 72%; in series [4], 83%; in series [5] it was 80%. Moreover, the IC50 in series [2] was 57.6 µM.
In the same order, the values of `Cc1sc2ncn3c(=O)c4cc(Br)cc(Br)c4nc3c2c1C` are 11%, 10%, 27%, 22% and 95.7 µM.
In the same order, the values of `COc1ccc(-c2cc(-c3ccccc3)nc3ncn4c(=O)c5cc(Br)ccc5nc4c23)cc1` are 28%, 26%, 44%, 41% and 76.6 µM.
In the same order, the values of `Cc1sc2ncn3c(=O)c4cc(Br)ccc4nc3c2c1C` are 66%, 63%, 76%, 71% and 146 µM.
`O=c1c2ccccc2nc2c3c(-c4ccccc4)cc(-c4ccc(Cl)cc4)nc3ncn12`: the inhibition in vivo at 50 mg/kg in series [1] came out at 18%; in series [3] it was 18%; in series [4] it was 34%; in series [5] it was 26%. Besides, the IC50 in series [2] was found to be 80.6 µM.
In the case of `O=c1c2cc(Br)cc(Br)c2nc2c3c4c(sc3ncn12)CCCC4`, the inhibition in vivo at 50 mg/kg came to 4% in series [1], 5% in series [3], 21% in series [4] and 15% in series [5]. In series [2], this molecule gave an IC50 of 104 µM.
In the same order, the values of `Cc1ccc(-c2csc3ncn4c(=O)c5cc(Br)cc(Br)c5nc4c23)cc1` are 22%, 20%, 37%, 33% and 61.9 µM.
`O=c1c2ccccc2nc2c3c(-c4ccc([N+](=O)[O-])cc4)cc(-c4ccc([N+](=O)[O-])cc4)nc3ncn12`: the inhibition in vivo at 50 mg/kg in series [1] was found to be 11%; in series [3] it was 5%; in series [4], 23%; in series [5], 11%. This molecule returned an IC50 in series [2] of 83.7 µM.
`Cc1ccc(-c2cc(-c3ccccc3)nc3ncn4c(=O)c5ccccc5nc4c23)cc1`: the inhibition in vivo at 50 mg/kg in series [1] is 8%; in series [3], 8%; in series [4], 20%; in series [5] it was 15%. In series [2], the IC50 worked out at 91.8 µM.
As for `O=c1c2cc(Br)cc(Br)c2nc2c3c(-c4ccccc4)cc(-c4ccc(Cl)cc4)nc3ncn12`, the inhibition in vivo at 50 mg/kg amounted to 30% in series [1], 28% in series [3], 47% in series [4] and 42% in series [5]. Moreover, 78 µM corresponded to half-maximal inhibition in series [2] (IC50).
In the same order, the values of `O=c1c2cc(Br)cc(Br)c2nc2c3c(-c4ccc([N+](=O)[O-])cc4)cc(-c4ccc([N+](=O)[O-])cc4)nc3ncn12` are 47%, 46%, 56%, 54% and 72.5 µM.
In the same order, the values of `O=c1c2cc(Br)ccc2nc2c3c(-c4ccc([N+](=O)[O-])cc4)cc(-c4ccc([N+](=O)[O-])cc4)nc3ncn12` are 11%, 10%, 28%, 22% and 101 µM.
In the same order, the values of `O=c1c2cc(Br)ccc2nc2c3c(-c4ccc(Cl)cc4)csc3ncn12` are 29%, 26%, 50%, 44% and 90.5 µM.
Turning to `COc1ccc(-c2csc3ncn4c(=O)c5cc(Br)cc(Br)c5nc4c23)cc1`, the inhibition in vivo at 50 mg/kg in series [1] came out at 16%; in series [3], 15%; in series [4], 31%; in series [5] it was 29%. The IC50 in series [2] came out at 60.5 µM.
In the same order, the values of `O=c1c2cc(Br)ccc2nc2c3c4c(sc3ncn12)CCCC4` are 63%, 60%, 71%, 68% and 128 µM.
In the same order, the values of `Cc1ccc(-c2csc3ncn4c(=O)c5cc(Br)ccc5nc4c23)cc1` are 42%, 40%, 56%, 52% and 85.3 µM.
In the same order, the values of `COc1ccc(-c2cc(-c3ccccc3)nc3ncn4c(=O)c5ccccc5nc4c23)cc1` are 8%, 7%, 22%, 18% and 72.1 µM.
Turning to `Cc1ccc(-c2cc(Cc3ccco3)c3c(ncn4c(=O)c5cc(Br)ccc5nc34)n2)cc1`, the inhibition in vivo at 50 mg/kg in series [1] worked out at 24%; in series [3] it was 13%; in series [4], 41%; in series [5], 37%. The molecule further returned a half-inhibitory concentration (IC50) in series [2] of 72.5 µM.
For `Cc1ccc(-c2cc(-c3ccccc3)nc3ncn4c(=O)c5cc(Br)ccc5nc4c23)cc1`, the inhibition in vivo at 50 mg/kg came out at 60% in series [1], 57% in series [3], 70% in series [4] and 68% in series [5]. Besides, inhibition in series [2] was half-maximal at 78.1 µM (IC50). In addition, in series [6], the Activity entry was “Non-toxic”.
Take `COc1ccc(-c2csc3ncn4c(=O)c5cc(Br)ccc5nc4c23)cc1`: the inhibition in vivo at 50 mg/kg in series [1] was 53%; in series [3], 50%; in series [4], 70%; in series [5] it was 59%. Also, the IC50 in series [2] was found to be 82.2 µM.
On to `COc1ccc2c(c1)c(CC(=O)O)c(C)n2C(=O)c1ccc(Cl)cc1` [INDOMETHACIN], for which the inhibition in vivo at 50 mg/kg in series [1] was 76%; in series [3], 72%; in series [4], 83%; in series [5], 79%. Besides, the Activity result in series [6] is reported as “Toxic”.
The molecule `CC(C)Cn1c(=O)n(C)c(=O)c2nc[nH]c21` [ISOBUTYLMETHYLXANTHINE] displayed a concentration for half-maximal inhibition (IC50) in series [2] of 24.7 µM. In other words, the double-digit micromolar range.
